Laboratory results from patent US5290347A, “Salt-forming type dye, and its concentrated solution composition and ink composition” (Orient Chemical Industries, Ltd., priority 1991, dated 1994).

How the values were obtained:
[1] = Solubility of the salt-forming type dyes (Tables 1-3); type: physicochemical; settings: for Solubility, Ethanol: solvent: ethanol; for Solubility, Glycol ether: solvent: glycol ether
[2] = Solubility of the comparative dyes (Table 4), evaluation A-D; type: physicochemical; settings: for Solubility, Glycol ether: solvent: glycol ether; for Solubility, Lower alcohol: solvent: lower alcohol; for Solubility, Water: solvent: water

SMILES: COc1cc(N=Nc2cccc(P(=O)(O)O)c2)c(C)cc1N=Nc1c(S(=O)(=O)O)cc2ccc(N)cc2c1O [Black No. 1]
- Solubility, Water:Solvent = 2:8 [1]: 15 g/100 ml
- Solubility, Ethanol [1]: 3 g/100 ml
- Solubility, Glycol ether [1]: 10 g/100 ml

SMILES: COc1cc(N=Nc2cccc(P(=O)(O)O)c2)c(C)cc1N=Nc1c(S(=O)(=O)O)cc2ccc(N)cc2c1O [Black No. 2]
- Solubility, Water:Solvent = 2:8 [1]: 10 g/100 ml
- Solubility, Ethanol [1]: 5 g/100 ml
- Solubility, Glycol ether [1]: 15 g/100 ml

SMILES: Nc1ccc2cc(S(=O)(=O)O)c(N=Nc3ccc(N=Nc4cccc(P(=O)(O)O)c4)c4ccc(S(=O)(=O)O)cc34)c(O)c2c1 [Black No. 3]
- Solubility, Water:Solvent = 2:8 [1]: 20 g/100 ml
- Solubility, Ethanol [1]: 5 g/100 ml
- Solubility, Glycol ether [1]: 30 g/100 ml

SMILES: Nc1cc2c(O)c(N=Nc3ccc(N=Nc4cccc(P(=O)(O)O)c4)c4ccc(S(=O)(=O)O)cc34)c(S(=O)(=O)O)cc2cc1S(=O)(=O)O [Black No. 4]
- Solubility, Water:Solvent = 2:8 [1]: 30 g/100 ml
- Solubility, Ethanol [1]: 5 g/100 ml
- Solubility, Glycol ether [1]: 30 g/100 ml

SMILES: Nc1cc2c(O)c(N=Nc3ccc(N=Nc4cccc(P(=O)(O)O)c4)c4ccc(S(=O)(=O)O)cc34)c(S(=O)(=O)O)cc2cc1S(=O)(=O)O [Black No. 5]
- Solubility, Water:Solvent = 2:8 [1]: 10 g/100 ml
- Solubility, Ethanol [1]: 10 g/100 ml
- Solubility, Glycol ether [1]: 30 g/100 ml

SMILES: CC1(C)Nc2cccc3c(N=Nc4cc(S(=O)(=O)O)cc5cc(S(=O)(=O)O)c(N=Nc6cccc(P(=O)(O)O)c6)c(O)c45)ccc(c23)N1 [Black No. 6]
- Solubility, Water:Solvent = 2:8 [1]: 10 g/100 ml
- Solubility, Ethanol [1]: 10 g/100 ml
- Solubility, Glycol ether [1]: 15 g/100 ml

SMILES: Nc1ccc2cc(S(=O)(=O)O)cc(O)c2c1N=Nc1cc(S(=O)(=O)O)cc2cc(S(=O)(=O)O)c(N=Nc3cccc(P(=O)(O)O)c3)c(O)c12 [Black No. 7]
- Solubility, Water:Solvent = 2:8 [1]: 30 g/100 ml
- Solubility, Ethanol [1]: 3 g/100 ml
- Solubility, Glycol ether [1]: 20 g/100 ml

SMILES: Nc1ccc2cc(S(=O)(=O)O)c(N=Nc3ccc(N=Nc4cccc(P(=O)(O)O)c4)c4ccc(S(=O)(=O)O)cc34)c(O)c2c1 [Black No. 8]
- Solubility, Water:Solvent = 2:8 [1]: 20 g/100 ml
- Solubility, Ethanol [1]: 8 g/100 ml
- Solubility, Glycol ether [1]: 30 g/100 ml

SMILES: Nc1c(N=Nc2cccc(P(=O)(O)O)c2)c(S(=O)(=O)O)cc2cc(S(=O)(=O)O)c(N=Nc3cccc(P(=O)(O)O)c3)c(O)c12 [Blue No. 1]
- Solubility, Water:Solvent = 2:8 [1]: 30 g/100 ml
- Solubility, Ethanol [1]: 3 g/100 ml
- Solubility, Glycol ether [1]: 25 g/100 ml

SMILES: Nc1cc(S(=O)(=O)O)cc2cc(S(=O)(=O)O)c(N=Nc3ccc(N=Nc4cccc(P(=O)(O)O)c4)c4ccc(O)cc34)c(O)c12 [Blue No. 2]
- Solubility, Water:Solvent = 2:8 [1]: 30 g/100 ml
- Solubility, Ethanol [1]: 5 g/100 ml
- Solubility, Glycol ether [1]: 25 g/100 ml

SMILES: COc1cc(N=Nc2cccc(P(=O)(O)O)c2)c(C)cc1N=Nc1c(S(=O)(=O)O)cc2cc(S(=O)(=O)O)cc(N)c2c1O [Blue No. 3]
- Solubility, Water:Solvent = 2:8 [1]: 25 g/100 ml
- Solubility, Ethanol [1]: 10 g/100 ml
- Solubility, Glycol ether [1]: 30 g/100 ml

SMILES: O=P(O)(O)c1cccc(N=Nc2ccc(N=Nc3c(O)ccc4cc(S(=O)(=O)O)cc(S(=O)(=O)O)c34)cc2)c1 [Red No. 1]
- Solubility, Water:Solvent = 2:8 [1]: 30 g/100 ml
- Solubility, Ethanol [1]: 10 g/100 ml
- Solubility, Glycol ether [1]: 20 g/100 ml

SMILES: CC(=O)Nc1cc(S(=O)(=O)O)cc2cc(S(=O)(=O)O)c(N=Nc3cccc(P(=O)(O)O)c3)c(O)c12 [Red No. 2]
- Solubility, Water:Solvent = 2:8 [1]: 30 g/100 ml
- Solubility, Ethanol [1]: 8 g/100 ml
- Solubility, Glycol ether [1]: 25 g/100 ml

SMILES: O=P(O)(O)c1cccc(N=Nc2c(S(=O)(=O)O)cc3cc(Nc4ccc5c(O)c(N=Nc6cccc(P(=O)(O)O)c6)c(S(=O)(=O)O)cc5c4)ccc3c2O)c1 [Red No. 3]
- Solubility, Water:Solvent = 2:8 [1]: 30 g/100 ml
- Solubility, Ethanol [1]: 5 g/100 ml
- Solubility, Glycol ether [1]: 25 g/100 ml

SMILES: Nc1cc(N=Nc2cccc(P(=O)(O)O)c2)c2c(O)cc(S(=O)(=O)O)cc2c1N=Nc1cccc(P(=O)(O)O)c1 [Red No. 4]
- Solubility, Water:Solvent = 2:8 [1]: 30 g/100 ml
- Solubility, Ethanol [1]: 3 g/100 ml
- Solubility, Glycol ether [1]: 30 g/100 ml

SMILES: Cc1nn(-c2ccccc2)c(O)c1N=Nc1cccc(P(=O)(O)O)c1 [compound 1]
- Solubility, Water:Solvent = 2:8 [2]: C (dissolved in an amount of 5% or less)
- Solubility, Glycol ether [2]: C (dissolved in an amount of 5% or less)
- Solubility, Lower alcohol [2]: D (dissolved in an amount of 1% or less)
- Solubility, Water [2]: D (dissolved in an amount of 1% or less)

SMILES: Cc1nn(-c2ccccc2)c(O)c1N=Nc1cccc(S(=O)(=O)O)c1 [compound 2]
- Solubility, Water:Solvent = 2:8 [2]: C (dissolved in an amount of 5% or less)
- Solubility, Glycol ether [2]: B (dissolved in an amount of 5~10%)
- Solubility, Lower alcohol [2]: C (dissolved in an amount of 5% or less)
- Solubility, Water [2]: D (dissolved in an amount of 1% or less)

SMILES: Nc1cc(S(=O)(=O)O)cc2cc(S(=O)(=O)O)c(N=Nc3ccc(N=Nc4cccc(S(=O)(=O)O)c4)c4ccc(O)cc34)c(O)c12 [compound 3]
- Solubility, Water:Solvent = 2:8 [2]: C (dissolved in an amount of 5% or less)
- Solubility, Glycol ether [2]: D (dissolved in an amount of 1% or less)
- Solubility, Lower alcohol [2]: D (dissolved in an amount of 1% or less)
- Solubility, Water [2]: A (dissolved in an amount of 10% or more)

SMILES: O=P(O)(O)c1cccc(N=Nc2ccc(N=Nc3c(O)ccc4cc(S(=O)(=O)O)cc(S(=O)(=O)O)c34)cc2)c1 [compound 4]
- Solubility, Water:Solvent = 2:8 [2]: C (dissolved in an amount of 5% or less)
- Solubility, Glycol ether [2]: C (dissolved in an amount of 5% or less)
- Solubility, Lower alcohol [2]: D (dissolved in an amount of 1% or less)
- Solubility, Water [2]: A (dissolved in an amount of 10% or more)

SMILES: Nc1cc2c(O)c(N=Nc3ccc(N=Nc4cccc(P(=O)(O)O)c4)c4ccc(S(=O)(=O)O)cc34)c(S(=O)(=O)O)cc2cc1S(=O)(=O)O [compound 5]
- Solubility, Water:Solvent = 2:8 [2]: D (dissolved in an amount of 1% or less)
- Solubility, Glycol ether [2]: C (dissolved in an amount of 5% or less)
- Solubility, Lower alcohol [2]: D (dissolved in an amount of 1% or less)
- Solubility, Water [2]: A (dissolved in an amount of 10% or more)

SMILES: Nc1cc2c(O)c(N=Nc3ccc(N=Nc4cccc(P(=O)(O)O)c4)c4ccc(S(=O)(=O)O)cc34)c(S(=O)(=O)O)cc2cc1S(=O)(=O)O [compound 6]
- Solubility, Water:Solvent = 2:8 [2]: C (dissolved in an amount of 5% or less)
- Solubility, Glycol ether [2]: B (dissolved in an amount of 5~10%)
- Solubility, Lower alcohol [2]: C (dissolved in an amount of 5% or less)
- Solubility, Water [2]: C (dissolved in an amount of 5% or less)

SMILES: CC(=O)Nc1cc(S(=O)(=O)O)cc2cc(S(=O)(=O)O)c(N=Nc3cccc(P(=O)(O)O)c3)c(O)c12 [compound 7]
- Solubility, Water:Solvent = 2:8 [2]: C (dissolved in an amount of 5% or less)
- Solubility, Glycol ether [2]: D (dissolved in an amount of 1% or less)
- Solubility, Lower alcohol [2]: D (dissolved in an amount of 1% or less)
- Solubility, Water [2]: A (dissolved in an amount of 10% or more)

SMILES: Nc1cc(S(=O)(=O)O)cc2cc(S(=O)(=O)O)c(N=Nc3ccc(N=Nc4cccc(S(=O)(=O)O)c4)c4ccccc34)c(O)c12 [compound 8]
- Solubility, Water:Solvent = 2:8 [2]: D (dissolved in an amount of 1% or less)
- Solubility, Glycol ether [2]: B (dissolved in an amount of 5~10%)
- Solubility, Lower alcohol [2]: C (dissolved in an amount of 5% or less)
- Solubility, Water [2]: D (dissolved in an amount of 1% or less)
